Experimental data: patent US10028989B2, “Composition comprising Retinol, a precursor or a reaction product of it and a plant extract from at least one Chamomilla plant for the treatment of cancer” (ALPINIA LAUDANUM INSTITUTE OF PHYTOPHARMACEUTICAL SCIENCES …, priority 2010, dated 2018)
Entries after “also recorded” stand apart in the source; their conditions may differ.

How the values were obtained:
[1] = test system: A172 human glioblastoma cell line; experiment: Cellular growth of A172 cells, live cell count with Trypan Blue (Example 10); assay type: cell-based; conditions: retinyl acetate 1 μg/ml, 6 days, FIG. 1A
Description: The human glioblastoma cell lines A172 and U87 MG were cultivated in culture medium containing 10% FBS and kept in a humidified incubator at 37° C. and 5% CO2. Cultures used in subsequent experiments were passaged less than 25 times. The cells were seeded at 100,000 cells in T25 cm2 culture flasks (cell concentration of 10,000 cells/ml). MR15E7 and Retinyl Acetate prepared according to examples 1 and 8 respectively were added alone as individual or together in combination (A172 FIGS. 1A and U87 FIG. 1B). The solvent control was 2% ethanol. Media were replaced once after 3 days of incubation with fresh media and samples. After 6 days, all cells were harvested to be analyzed. The cell number was determined using a cell counter (Countess® automated cell counter, Invitrogen). Live cells were differentiated from dead cells by adding Trypan Blue. Live cells would be Trypan Blue negative since the dye would be excluded from viable cells. […] Solvent control was set at 100%. […] The solvent control and the final ethanol concentration for every well was 2%.

[2] = test system: U87 MG human glioblastoma cell line; experiment: Cellular growth of U87 MG cells, live cell count with Trypan Blue (Example 10); assay type: cell-based; conditions: MR15E7 30 μg/ml, retinyl acetate 1 μg/ml, 6 days, FIG. 1B
Description: The human glioblastoma cell lines A172 and U87 MG were cultivated in culture medium containing 10% FBS and kept in a humidified incubator at 37° C. and 5% CO2. Cultures used in subsequent experiments were passaged less than 25 times. The cells were seeded at 100,000 cells in T25 cm2 culture flasks (cell concentration of 10,000 cells/ml). MR15E7 and Retinyl Acetate prepared according to examples 1 and 8 respectively were added alone as individual or together in combination (A172 FIGS. 1A and U87 FIG. 1B). The solvent control was 2% ethanol.
Media were replaced once after 3 days of incubation with fresh media and samples. After 6 days, all cells were harvested to be analyzed. The cell number was determined using a cell counter (Countess® automated cell counter, Invitrogen).
Live cells were differentiated from dead cells by adding Trypan Blue. Live cells would be Trypan Blue negative since the dye would be excluded from viable cells.
Solvent control was set at 100%. […] The potential growth inhibitory effects of retinyl acetate (1 μg/ml), MR15E7 (30 μg/ml) and the combination of 30 μg/ml of the extract and retinyl acetate (1 μg/ml) were observed on both the A172 (A) and U87 MG (B) cell lines. The solvent control and the final ethanol concentration for every well was 2%.

[3] = test system: H460 human large cell lung cancer cell line; experiment: Cellular growth of H460 cells, AMT without chamomile, with MR15E14 or with CHARE (Example 12); assay type: cell-based; conditions: extracts 21 μg/ml, 1% AMT, retinoic acid 1 μg/ml or 1% ethanol, 6 days, FIG. 3A/3B
Description: The following experiments were performed to compare the composition of the present invention with the teaching of WO 03101479 A1: The human large cell lung cancer cell line, H460, was obtained from the American Type Culture Collection. The cells were cultivated in RPMI-1640 medium containing 10% FBS and kept in a humidified incubator at 37° C. and 5% CO2. Cultures used in subsequent experiments were passaged less than 25 times. The H460 cells were seeded at 14375 cells/well (cell concentration of 10,000 cells/ml) in 12 well plates and were left to adhere overnight.
The H460 cells were incubated with the samples and sample pairs for a total of 6 days with one dose and media refreshment. After 6 days, all cells were harvested to be analyzed. The cell number was determined using flow cytometry. Live cells were differentiated from dead cells by adding Propidium iodide (PI). In short, cells were trypsinized, centrifuged and resuspended in 500 μl of media. 2 μl of PI (1 mg/ml) was added to 400 μl of cell suspension. Since the cells number present in 10 μl of the cell suspension was measured, multiple measurements for each well were taken. […] Solvent control was set at 100%.

[4] = test system: H460 human large cell lung cancer cell line; experiment: Cellular growth of H460 cells, flow cytometry cell count with PI (Example 11); assay type: cell-based; conditions: retinoic acid 1 μg/ml, extracts 21 μg/ml, 6 days, 2% ethanol, FIG. 2
Description: The human large cell lung cancer cell line, H460, was obtained from the American Type Culture Collection. The cells were cultivated in RPMI-1640 medium containing 10% FBS and kept in a humidified incubator at 37° C. and 5% CO2. Cultures used in subsequent experiments were passaged less than 25 times. The H460 cells were seeded at 14375 cells/well (cell concentration of 10,000 cells/ml) in 12 well plates and were left to adhere overnight.
MR15E14, CHARE and Retinoic acid prepared as described in examples 2, 4 and 9 respectively including a solvent control (2% ethanol) were added to the cells. Media were replaced once after 3 days of incubation with fresh media and samples. After 6 days, all cells were harvested to be analyzed. The cell number was determined using flow cytometry. Live cells were differentiated from dead cells by adding Propidium iodide (PI). Live cells would be PI negative since the dye would be excluded from viable cells.
In short, cells were trypsinized, centrifuged and resuspended in 500 μl of media. 2 μl of PI (1 mg/ml) was added to 400 μl of cell suspension. Since the cells number present in 10 μl of the cell suspension was measured, multiple measurements for each well were taken.
Solvent control was set at 100%.

[5] = test system: Pan02 murine pancreatic adenocarcinoma; experiment: Efficacy study in the syngenic orthotopic Pan02 tumor model (Example 15); assay type: in vivo, female C57BL/6 mice; conditions: oral, 21 days
Source text: The purpose of this study was to obtain information about the efficacy of the oral combination of Chamomile extract (MR31E25C1 and Retinoic acid (RetAcid) in a syngenic orthotropic PAN02 tumor murine model.
Young (approximately 7 weeks) female C57BL/6 mice were purchased from the National Cancer Institute (Frederick, Md.) and maintained in Aurigon Life Science GmbH's animal care facility with ad libitum access to water and mouse chow (Ssniff® R/M-H). The animals were divided into groups of 10 animals.
All animals, except those in the non-inoculated control group, were given an intrapancreatic injection of 2.5×10^5 Pan02 tumor cells each. Pan02 is a murine pancreatic adenocarcinoma cell line syngeneic to the C57BL/6 species. First treatment was given orally 15 days after the inoculation for a total period of 21 days.
Necropsy was performed at the end of the in-life phase or immediately on animals found dead or killed in extremis. The weights of the brain, whole pancreas, pancreatic tumor, spleen, and liver were determined and the number/size of metastases on the surface of the spleen and liver, peritoneal, kidney, ovary, diaphragm metastases, and metastases of the lymph nodes (if applicable) were recorded. Additionally, the size of the pancreatic tumors of the animals was measured.
The groups were as follows:
Group 1: Non-inoculated, untreated control group. […]

SMILES	effect on cellular growth [1]	effect on cellular growth [2]	effect on cellular growth [3]	effect on cellular growth [4]	median tumor volume ([5]; MR31E25C1 484.5 mg/kg 3x daily, retinoic acid 25 mg/kg 2x daily for 2 days, then 10 mg/kg daily, FIG. 5)	cumulative metastases area in various organs ([5]; same doses, vs untreated PAN02 inoculated group, FIG. 6)
CC(=O)OC/C=C(C)/C=C/C=C(C)/C=C/C1=C(C)CCCC1(C)C [retinyl acetate, Retinyl Acetate]	did not affect cellular growth; also recorded: do not affect cellular growth	did not affect cellular growth; also recorded: do not affect cellular growth	–	–	–	–
CC1=C(/C=C/C(C)=C/C=C/C(C)=C/C(=O)O)C(C)(C)CCC1 [Retinoic acid, all-trans-Retinoic acid]	–	–	slight growth retarding effect	slightly reduced the cellular growth	even aggravated the situation	only slight reduction of the overall metastasis development
